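48-hour exposure; five concentrations; linearly interpolated endpoints. GI50 is the concentration that inhibits growth by half.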 Activity calls are given as the source filed them. Cut-off read from the data, not from the text of the source: active = GI50 up to about 1.1 µM and inactive = higher.
Legend:
Experiment in all cases: growth of human tumour cells (NCI), 48 h
IGROV-1 = tested on: IGROV-1
KM12 = tested on: KM12
SF-268 = tested on: SF-268
SNB-78 = tested on: SNB-78
HOP-62 = tested on: HOP-62
SNB-75 = tested on: SNB-75
U-251 = tested on: U-251
KM-20L2 = tested on: KM-20L2
Malme-3M = tested on: Malme-3M
SK-MEL-2 = tested on: SK-MEL-2
UACC-62 = tested on: UACC-62
ACHN = tested on: ACHN
M14 = tested on: M14
HL-60 = tested on: HL-60
SF-539 = tested on: SF-539
SK-MEL-5 = tested on: SK-MEL-5
NCI/ADR-RES = tested on: NCI/ADR-RES
MDA-N = tested on: MDA-N
MCF7 = tested on: MCF7
MDA-MB-435 = tested on: MDA-MB-435

Measured: GI50

O=C1NCCS(=O)(=O)N[C@@H](CC2=CC=CCC2)C(=O)N2CCCC12 (stereo partly specified)
inactive: IGROV-1 > 100 µM | KM12 > 100 µM | SF-268 > 100 µM | SNB-78 > 100 µM | HOP-62 > 100 µM | SNB-75 > 100 µM | U-251 > 100 µM | KM-20L2 > 100 µM | Malme-3M > 100 µM | SK-MEL-2 > 100 µM | UACC-62 > 100 µM | ACHN > 100 µM | M14 > 100 µM | HL-60 > 100 µM | SF-539 > 100 µM | SK-MEL-5 > 100 µM

COC(=O)c1sc(C(=O)OC)c2c1CSC2
inactive: IGROV-1 > 100 µM | NCI/ADR-RES > 100 µM | KM12 > 100 µM | MDA-N > 100 µM | SF-268 54.1 µM | SNB-78 49.3 µM | HOP-62 47.6 µM | SNB-75 22.5 µM | U-251 40.3 µM | KM-20L2 > 100 µM | Malme-3M > 100 µM | SK-MEL-2 55.8 µM | MCF7 > 100 µM | UACC-62 > 78.7 µM | ACHN > 100 µM | M14 > 100 µM | HL-60 > 100 µM | SF-539 53.3 µM | SK-MEL-5 > 100 µM | MDA-MB-435 > 100 µM

CC1(C)COC2(OC1)C1=NS(=O)(=O)CC13CCC2C3(C)C (stereo unspecified)
inactive: IGROV-1 > 100 µM | KM12 > 100 µM | SF-268 > 100 µM | SNB-78 > 100 µM | HOP-62 > 100 µM | SNB-75 > 100 µM | U-251 > 100 µM | KM-20L2 > 100 µM | Malme-3M > 100 µM | SK-MEL-2 > 100 µM | UACC-62 > 100 µM | ACHN > 100 µM | M14 > 100 µM | HL-60 > 100 µM | SF-539 > 100 µM | SK-MEL-5 > 100 µM

COc1cccc(OC)c1/C=N\N1C(=O)c2ccccc2C1=O
inactive: IGROV-1 84.3 µM | KM12 36.6 µM | SF-268 37.8 µM | SNB-78 59.4 µM | HOP-62 > 100 µM | SNB-75 38.5 µM | KM-20L2 19.2 µM | Malme-3M 60 µM | SK-MEL-2 60.8 µM | UACC-62 34.6 µM | ACHN 47.4 µM | M14 19.7 µM | HL-60 33.9 µM | SF-539 24.3 µM | SK-MEL-5 52.1 µM

CC1OC(n2cc(F)c(=O)[nH]c2=O)CCC1=O (stereo unspecified)
inactive: IGROV-1 > 100 µM | KM12 92.9 µM | SF-268 > 100 µM | SNB-78 > 100 µM | HOP-62 50.8 µM | SNB-75 > 100 µM | U-251 > 100 µM | KM-20L2 96.6 µM | Malme-3M > 100 µM | SK-MEL-2 > 100 µM | UACC-62 > 100 µM | ACHN > 100 µM | M14 > 100 µM | HL-60 74.6 µM | SF-539 10.4 µM | SK-MEL-5 > 100 µM

CC#CC1C(OC(=O)c2ccccc2)CCCC1(CI)N=[N+]=[N-] (stereo unspecified)
inactive: IGROV-1 > 100 µM | KM12 89.7 µM | SF-268 67 µM | SNB-78 > 100 µM | HOP-62 94 µM | SNB-75 > 100 µM | U-251 59.7 µM | KM-20L2 60.7 µM | Malme-3M > 100 µM | SK-MEL-2 75 µM | UACC-62 > 100 µM | ACHN > 100 µM | M14 59.8 µM | HL-60 15.1 µM | SF-539 > 100 µM | SK-MEL-5 19.5 µM

O=C1C=C(Nc2ccccc2C(=O)CC(=O)C(=O)Nc2cccc([N+](=O)[O-])c2)c2ccccc2C1=O
inactive: IGROV-1 80.4 µM | KM12 36.7 µM | SF-268 22.2 µM | SNB-78 49.1 µM | HOP-62 > 100 µM | SNB-75 64.7 µM | U-251 32.4 µM | KM-20L2 > 100 µM | Malme-3M 20.4 µM | SK-MEL-2 56 µM | UACC-62 26.6 µM | ACHN > 100 µM | M14 41.5 µM | HL-60 3.38 µM | SF-539 > 100 µM | SK-MEL-5 12.9 µM

Cc1nc(C(N)=S)sc1C(=O)/C=C/c1cccc(O)c1
inactive: IGROV-1 > 100 µM | KM12 32.4 µM | SF-268 87.3 µM | SNB-78 > 100 µM | HOP-62 > 100 µM | SNB-75 59.6 µM | U-251 > 100 µM | KM-20L2 > 100 µM | Malme-3M > 100 µM | SK-MEL-2 > 100 µM | UACC-62 > 100 µM | ACHN 56.6 µM | HL-60 36.1 µM | SF-539 > 100 µM | SK-MEL-5 > 100 µM

CSc1nc(NC2OC(COC(C)=O)C(OC(C)=O)C(OC(C)=O)C2OC(C)=O)c2c(n1)OCC2=O (stereo unspecified)
inactive: IGROV-1 > 100 µM | KM12 > 100 µM | SF-268 > 100 µM | SNB-78 > 100 µM | HOP-62 > 100 µM | SNB-75 > 100 µM | U-251 > 100 µM | KM-20L2 > 100 µM | Malme-3M > 100 µM | SK-MEL-2 > 100 µM | UACC-62 > 100 µM | ACHN > 100 µM | M14 > 100 µM | HL-60 > 100 µM | SF-539 > 100 µM | SK-MEL-5 > 100 µM

N#CC(NNC(=O)Cc1ccccc1)c1c(O)ccc2ccccc12 (stereo unspecified)
inactive: IGROV-1 5.31 µM | NCI/ADR-RES 2.92 µM | KM12 4.02 µM | MDA-N 7.5 µM | SF-268 3.45 µM | SNB-78 13.6 µM | HOP-62 10.2 µM | SNB-75 8.47 µM | U-251 3.72 µM | KM-20L2 15.8 µM | Malme-3M 4.4 µM | SK-MEL-2 2.92 µM | MCF7 3.15 µM | UACC-62 3.08 µM | ACHN 3.4 µM | M14 5.13 µM | HL-60 1.67 µM | SF-539 4.16 µM | SK-MEL-5 3.46 µM | MDA-MB-435 10.4 µM

COC(=O)N/N=C(\C)CC(=O)Nc1ccc(Cl)cc1
inactive: IGROV-1 > 100 µM | KM12 > 100 µM | SF-268 > 100 µM | SNB-78 > 100 µM | HOP-62 > 100 µM | SNB-75 98.6 µM | U-251 > 100 µM | KM-20L2 > 100 µM | Malme-3M > 100 µM | SK-MEL-2 > 100 µM | UACC-62 > 100 µM | M14 > 100 µM | HL-60 > 100 µM | SF-539 > 100 µM | SK-MEL-5 > 100 µM

— ChEMBL document CHEMBL1201862, “PubChem BioAssay data set” (2004)
